From patent publication US20130197030A1, “Substituted 1,3-Dioxanes and There Uses” (Evolva Sa, priority 2007, published 2013) come the findings set out here.

In data set [1] the target is T1, Thromboxane synthase (Homo sapiens, UniProt P24557).
T1 construct: Human Platelet Thromboxane Synthase Assay; from tissue; host or cells: human platelets
T1 sequence (P24557 1-533): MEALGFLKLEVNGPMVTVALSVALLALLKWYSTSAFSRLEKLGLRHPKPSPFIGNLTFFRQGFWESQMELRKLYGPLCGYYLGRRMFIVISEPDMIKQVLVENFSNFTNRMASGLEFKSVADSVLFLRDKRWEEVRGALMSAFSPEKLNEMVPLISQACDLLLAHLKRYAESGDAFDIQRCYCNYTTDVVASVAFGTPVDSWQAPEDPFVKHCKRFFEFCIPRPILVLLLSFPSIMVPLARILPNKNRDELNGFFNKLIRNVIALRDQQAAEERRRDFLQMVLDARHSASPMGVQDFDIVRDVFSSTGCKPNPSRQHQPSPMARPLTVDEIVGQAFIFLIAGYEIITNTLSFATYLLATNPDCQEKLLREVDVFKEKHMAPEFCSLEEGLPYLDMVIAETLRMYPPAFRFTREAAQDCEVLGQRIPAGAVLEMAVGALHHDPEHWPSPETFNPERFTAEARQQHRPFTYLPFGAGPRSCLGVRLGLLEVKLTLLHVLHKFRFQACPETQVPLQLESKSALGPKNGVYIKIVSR
Put plainly: Human platelet thromboxane synthase assay. Format: biochemical. Here is the method:
The compounds were tested for thromboxane synthase inhibition essentially as described by Borsch-Haubold A G, Pasquet S, Watson S P. (1998). Direct inhibition of cyclooxygenase-1 and -2 by the kinase inhibitors SB 203580 and PD 98059. […] 1. Imidazole derivatives. J Med. Chem. (10):1139-48 according to the following:
Pre-incubation time, temp: 15 minutes at 25° C. Incubation time, temp: 3 minutes at 25° C.
Incubation Buffer: 10 mM Tris-HCl, pH 7.4
Quantification Method: ETA quantification of TxB2

For data set [2], the system named is KKA^y mice. Put plainly: In vivo effect on serum glucose and other parameters in KKA^y mice. The conditions noted are these: dose not given. As to the method:
52 male KKA^y mice are obtained commercially (e.g., from Clea Japan) at an age of 6 weeks and put on a high fat diet upon arrival. Individual mice were housed in IVC Type II cages during both the acclimatization and the experimental phase. Both food (high fat diet) and water are supplied ad libitum.
1 animal per cage. […] Lights on at 06:00 a.m. Temperature: 21-25° C. Relative humidity target range: 55-60%.
Mice were randomized into treatment groups according to their 4-h fasting blood glucose.
4 hours after the last administration, non-fasting conditions.
Gamma irradiated high fat diet is commercially available (e.g., Research Diets, Inc. New Brunswick, N.J. (Product # D12266BI)).
Blood is collected into heparin containing glass capillaries which are subsequently centrifuged in a “Haematokrit 24” centrifuge (Hettich) at 15′200×g for 10 minutes at room temperature to obtain the hematocrit value.
The following serum parameters are determined on a COBAS INTEGRA 800 auto analyzer (Roche Diagnostics, Switzerland) using the reagents and protocols provided by the supplier.
All measurements are made on Day 14 of administration, except for the food intake and body weight measurements that are made on Day 12.

The subject of data set [3] is 3T3-L1 adipocytes. Put plainly: Insulin-stimulated glucose uptake assay. Format: cell-based. The conditions noted are these: compared with Compound A (racemate). As to the method: Briefly, glucose uptake is measured in 3T3-L1 adipocytes cultured in 96-well plates. On day 6 of differentiation (according to the MDI-protocol, see above) cells are treated with either vehicle, positive control (Avandia) or test compound. 48 hours later the ability of adipocytes to take up glucose in response to insulin is determined. Cells are washed with serum-free DMEM+antibiotics and incubated in the same medium at 37° C. for 2 hours. Cells are then washed and subsequently incubated in Krebs-Ringer-Hepes (KRP) buffer for 30 min at 37° C. Hereafter, insulin is added to the cells to a final concentration of 10 nM and cells are then incubated at 37° C. for 15 min. Glucose uptake is initiated by the addition of KRP buffer supplemented with 10 mM [^14C] 2-deoxy-D-glucose. After further incubation for 15 min at 37° C., glucose uptake is terminated by addition of a large surplus of cold glucose and three rapid washes of ice-cold PBS. Cells are then lysed and ^14C-radioactivity determined by scintillation counting.

Broadly, the IC50 is the point on the concentration scale where inhibition reaches its midpoint. A high value points to weaker potency. The inhibition is the drop in the measured response relative to a control, in per cent. As to `O=C(O)CC/C=C\CC1COC(c2coc3ccc(Cl)cc3c2=O)OC1c1ccccc1O` (racemic) [Compound 3, (Z)-6-(2-(6-Chloro-4-oxo-4H-chromen-3-yl)-4-(2-hydroxyphenyl)-1,3-dioxan-5-yl)hex-4-enoic acid], in data set [1], the IC50 was determined as 56 nM and the “Inhibition of thromboxane synthase (in words)” value was “potent inhibitors of thromboxane synthase”. In data set [1] (at 5 μM), this compound registered an inhibition at 5 µM of 94%. Moreover, in data set [2] (14-day oral gavage BID), the FFA entry is “decreases the FFA”, the HbA1c levels result is listed as “decreased” and the Heart weight entry was “has no effect on heart weight”. The Body weight result in data set [2] (oral gavage BID) is given as “do not alter body weight”. Besides, the “Effect in glucose uptake assays (in words)” value in data set [3] was “effect similar if not better to Compound A (racemate)”.
